Like-named read-outs stand apart in the source and are kept apart here.
Key:
α1β2γ2 GABAA receptor = target: T1, α1β2γ2 GABAA receptor (Homo sapiens, UniProt P14867+P47870); test: Patch clamp electrophysiology assay of recombinant α1β2γ2 GABAA receptors (potentiation of 2 μM GABA-evoked Cl- current); type: cell-based; settings: HEK293T cells stably transfected with α1β2γ2 GABAA; for EC50: whole cell, 2 μM GABA, -80 mV; for Emax: HEK-293T, potentiation of 2 μM GABA current
T1 construct: expressed in transfected cells
Description: Cellular electrophysiology is used to measure the pharmacological properties of GABAA receptor modulators in heterologous cell systems. Each compound is tested for its ability to affect GABA mediated currents at a submaximal agonist dose (GABA EC20=2 μM). HEK293T cells are stably transfected with the α1β2γ2 subunits of the GABAA receptor. Flasks or dishes of HEK293 GABAA cells were maintained in the medium (DMEM, 11% (v/v) heat inactivated FBS, 100 or 200 μg/ml G418, 40 μg/ml Hygromycin B, 80 μg/ml Zeocin) and incubated at 37° C. in a humidified incubator with 5% CO2. 12 to 24 hours prior to electrophysiological recordings, the cells were plated on glass cover slips placed in culture dishes and maintained under the same incubation and media conditions. The number of cells being plated on the cover slip should reach a confluence rate at which majority of the cells are single.
For the electrophysiological recordings in the study the following external and internal solutions were used (Table 1):
HEKA EPC 10 USB patch clamp amplifier (from HEKA Elektronik, Germany) was used in the whole cell recording. A cover slip with plenty of single HEK293T-GABAA cells on the surface was removed and placed into a continuously perfused (approximately 1-2 ml/minute) recording chamber mounted on an inverted microscope. GABAA Cl^− current was recorded from single cell using standard whole cell recording techniques. 2 μM GABA was used to evoke GABAA Cl^− current (2 μM of GABA was the EC10-EC20 value of agonist GABA obtained internally on the stable GABAA cells used in this study). After achieving break-in (whole-cell) configuration, the cell was voltage clamped at a holding potential of −80 mV. Only stable cells meeting the recording parameters (membrane resistance Rm>500 MΩ, access resistance (Ra)<15 MΩ, leak current<100 pA in 90% of the recording time) were used. 2 μM GABA was applied to the cell to induce stable Cl^− current first as control for about 2 seconds, test compounds (i.e., compounds of formula (AI), (I), (AII), and (II), or any subgenera thereof) were followed to be applied to the cells for 3 min, then 2 μM GABA was applied to observe the potentiation effect on the GABAA Cl^− current. Different doses of test compound from low to high were applied to the same cell when the cell was stable. A cell was considered stable when current size evoked by 2 μM GABA applied to the cell from time to time was similar. To minimize the possible desensitation of GABAA Cl^− current, duration between applications of test articles was set to 180 seconds.
Test compounds were dissolved in DMSO to form stock solutions (10 mM). Test compounds were diluted to 0.003, 0.01, 0.03, 0.1, 0.3, 1, 3 and 10 μM in bath solution. AU concentrations of test articles were tested on each cell. Data were analyzed using software provided by HEKA, Microsoft Excel and Graphpad Prism (Table 2).

[1] = Mouse PK study (i.v. and p.o.); type: in vivo; settings: plasma, male CD1 mice; for half-life: read-out: T1/2 (hr) i.v. (converted); for Vd: read-out: Vss; for bioavailability: 5 mg/kg p.o. vs 1 mg/kg i.v.
Description: Test compounds were dosed to male CD1 mice at 5 mg/kg by oral gavage (p.o.) or 1 mg/kg by intravenous injection (i.v.). Blood samples were taken at 0.083, 0.25, 0.5, 1.0, 3.0, 6.0 and 24 hours post i.v. dosing and at 0.25, 0.5, 1.0, 3.0, 6.0 and 24 hours post p.o. dosing. The plasma concentration of compounds were determined by HPLC.

[2] = iv, 1 mg/kg i.v., read-out: AUClast (hr*ng/mL) i.v.
[3] = po, 5 mg/kg p.o., read-out: AUClast (hr*ng/mL) p.o.

T1 sequence (P14867 28-456): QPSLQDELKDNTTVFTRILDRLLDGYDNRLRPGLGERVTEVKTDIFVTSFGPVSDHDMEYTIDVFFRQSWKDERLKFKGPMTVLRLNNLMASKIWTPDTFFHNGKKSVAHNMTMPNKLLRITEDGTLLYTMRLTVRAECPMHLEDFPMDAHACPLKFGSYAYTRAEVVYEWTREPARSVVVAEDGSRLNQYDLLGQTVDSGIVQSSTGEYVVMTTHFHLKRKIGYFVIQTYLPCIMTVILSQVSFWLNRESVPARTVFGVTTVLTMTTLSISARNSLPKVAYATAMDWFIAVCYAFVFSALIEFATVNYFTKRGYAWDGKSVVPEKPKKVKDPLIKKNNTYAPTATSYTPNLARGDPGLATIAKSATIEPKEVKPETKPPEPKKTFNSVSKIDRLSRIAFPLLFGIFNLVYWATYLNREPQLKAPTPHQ
T1 sequence (P47870 25-512 limits assumed): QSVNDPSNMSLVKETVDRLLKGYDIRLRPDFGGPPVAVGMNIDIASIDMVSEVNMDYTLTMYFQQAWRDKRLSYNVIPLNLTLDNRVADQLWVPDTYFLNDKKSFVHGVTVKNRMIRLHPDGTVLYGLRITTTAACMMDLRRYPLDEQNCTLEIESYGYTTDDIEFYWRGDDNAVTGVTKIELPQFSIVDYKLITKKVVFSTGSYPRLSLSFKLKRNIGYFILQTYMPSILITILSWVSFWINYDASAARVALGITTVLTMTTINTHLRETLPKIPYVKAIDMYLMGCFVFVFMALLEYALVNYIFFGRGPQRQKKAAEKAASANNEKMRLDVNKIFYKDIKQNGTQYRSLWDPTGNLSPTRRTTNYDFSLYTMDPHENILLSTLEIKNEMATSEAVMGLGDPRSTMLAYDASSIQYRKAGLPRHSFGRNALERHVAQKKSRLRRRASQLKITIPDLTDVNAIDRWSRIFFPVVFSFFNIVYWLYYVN
T1 sequence (P18507 40-475 partner): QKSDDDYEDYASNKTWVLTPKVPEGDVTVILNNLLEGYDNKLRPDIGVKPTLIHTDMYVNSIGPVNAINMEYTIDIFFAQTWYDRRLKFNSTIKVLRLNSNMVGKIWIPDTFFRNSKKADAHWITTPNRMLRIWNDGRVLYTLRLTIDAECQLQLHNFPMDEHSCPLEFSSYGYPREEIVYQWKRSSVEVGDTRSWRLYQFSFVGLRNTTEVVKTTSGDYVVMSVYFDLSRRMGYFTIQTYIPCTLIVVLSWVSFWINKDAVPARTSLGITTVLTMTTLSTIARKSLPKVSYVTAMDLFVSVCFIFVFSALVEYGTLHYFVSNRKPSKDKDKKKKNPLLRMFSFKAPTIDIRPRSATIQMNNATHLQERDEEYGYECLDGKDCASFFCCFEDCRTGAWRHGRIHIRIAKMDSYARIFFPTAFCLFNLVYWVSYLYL

SMILES | EC50 (α1β2γ2 GABAA receptor) [µM] | clearance ([1]; iv, 1 mg/kg i.v.) [mL/min/kg] | AUC(0-t) [1, 2] [ng·h/mL] | half-life ([1]; iv, 1 mg/kg i.v.) [h] | Vd ([1]; iv, 1 mg/kg i.v.) [L/kg] | Cmax ([1]; po, 5 mg/kg p.o.) [ng/mL] | Tmax ([1]; po, 5 mg/kg p.o.) [min] | bioavailability ([1]; po) [%] | AUC(0-t) [1, 3] [ng·h/mL] | Emax (α1β2γ2 GABAA receptor) [%]
CCn1nnn(CC(=O)[C@H]2CC[C@H]3[C@@H]4CC[C@@H]5C[C@](C)(O)CC[C@@H]5[C@H]4CC[C@]23C)c1=O [Example 3, 1-ethyl-4-(2-((3R,5R,8R,9R,10S,13S,14S,17S)-3-hydroxy-3,13-dimethylhexadecahydro-1H-cyclopenta[a]phenanthren-17-yl)-2-oxoethyl)-1,4-dihydro-5H-tetrazol-5-one] | 0.094 | 24.3 | 673 | 0.57 | 0.93 | 973 | 30 | 40.5 | 1330 | –
C[C@@]1(O)CC[C@H]2[C@H](CC[C@@H]3[C@@H]2CC[C@]2(C)[C@@H](C(=O)Cn4nnn(C5CCCC5)c4=O)CC[C@@H]32)C1 [Example 8, 1-cyclopentyl-4-(2-((3R,5R,8R,9R,10S,13S,14S,17S)-3-hydroxy-3,13-dimethylhexadecahydro-1H-cyclopenta[a]phenanthren-17-yl)-2-oxoethyl)-1,4-dihydro-5H-tetrazol-5-one] | 0.095 | 140 | 117 | 0.73 | 2.38 | 22 | 39.6 | 4.48 | 26 | –
CC(C)n1nnn(CC(=O)[C@H]2CC[C@H]3[C@@H]4CC[C@@H]5C[C@](C)(O)CC[C@@H]5[C@H]4CC[C@]23C)c1=O [Example 4, 1-(2-((3R,5R,8R,9R,10S,13S,14S,17S)-3-hydroxy-3,13-dimethylhexadecahydro-1H-cyclopenta[a]phenanthren-17-yl)-2-oxoethyl)-4-isopropyl-1,4-dihydro-5H-tetrazol-5-one] | 0.14 | 24.8 | 659 | 0.54 | 0.88 | 808 | 15 | 25.8 | 782 | –
COc1ccc(-n2nnn(CC(=O)[C@H]3CC[C@H]4[C@@H]5CC[C@@H]6C[C@](C)(O)CC[C@@H]6[C@H]5CC[C@]34C)c2=O)cc1 [Example 15, 1-(2-((3R,5R,8R,9R,10S,13S,14S,17S)-3-hydroxy-3,13-dimethylhexadecahydro-1H-cyclopenta[a]phenanthren-17-yl)-2-oxoethyl)-4-(4-methoxyphenyl)-1,4-dihydro-5H-tetrazol-5-one] | 0.005 | 30 | 542 | 1.05 | 1.76 | 106 | 60 | 10.8 | 292 | –
Cn1ccc(-n2nnn(CC(=O)[C@H]3CC[C@H]4[C@@H]5CC[C@@H]6C[C@](C)(O)CC[C@@H]6[C@H]5CC[C@]34C)c2=O)n1 [Example 27, 1-(2-((3R,5R,8R,9R,10S,13S,14S,17S)-3-hydroxy-3,13-dimethylhexadecahydro-1H-cyclopenta[a]phenanthren-17-yl)-2-oxoethyl)-4-(1-methyl-1H-pyrazol-3-yl)-1,4-dihydro-5H-tetrazol-5-one] | 0.12 | 14.5 | 1110 | 1.09 | 1.14 | 1070 | 60 | 153 | 8770 | –
C[C@@]1(O)CC[C@H]2[C@H](CC[C@@H]3[C@@H]2CC[C@]2(C)[C@@H](C(=O)Cn4nnn(-c5cocn5)c4=O)CC[C@@H]32)C1 [Example 24, 1-(2-((3R,5R,8R,9R,10S,13S,14S,17S)-3-hydroxy-3,13-dimethylhexadecahydro-1H-cyclopenta[a]phenanthren-17-yl)-2-oxoethyl)-4-(oxazol-4-yl)-1,4-dihydro-5H-tetrazol-5-one] | 0.064 | 15.5 | 998 | 1.57 | 1.87 | 775 | 180 | 172 | 9180 | 698
C[C@@]1(O)CC[C@H]2[C@H](CC[C@@H]3[C@@H]2CC[C@]2(C)[C@@H](C(=O)Cn4nnn(C(F)(F)F)c4=O)CC[C@@H]32)C1 [Example 22, 1-(2-((3R,5R,8R,9R,10S,13S,14S,17S)-3-hydroxy-3,13-dimethylhexadecahydro-1H-cyclopenta[a]phenanthren-17-yl)-2-oxoethyl)-4-(trifluoromethyl)-1,4-dihydro-5H-tetrazol-5-one] | 0.014 | 130 | 118 | 0.3 | 2.59 | 213 | 30 | 34.2 | 203 | –
C[C@@]1(O)CC[C@H]2[C@H](CC[C@@H]3[C@@H]2CC[C@]2(C)[C@@H](C(=O)Cn4nnn(-c5cccnc5)c4=O)CC[C@@H]32)C1 [Example 18, 1-(2-((3R,5R,8R,9R,10S,13S,14S,17S)-3-hydroxy-3,13-dimethylhexadecahydro-1H-cyclopenta[a]phenanthren-17-yl)-2-oxoethyl)-4-(pyridin-3-yl)-1,4-dihydro-5H-tetrazol-5-one] | 0.039 | 56.5 | 270 | 0.29 | 1.33 | 297 | 60 | 50.1 | 692 | 757

Source: patent US20220089636A1, “TETRAZOLONE SUBSTITUTED STEROIDS AND USE THEREOF” (Beijing Xuanyi PharmaSciences Co., Ltd., priority 2019, published 2022)
